Measured values reported in patent publication US7217729B2, “Substituted indoles, process for the production thereof and use thereof for combatting pain” (Grunenthal GmbH, priority 2001, dated 2007).

The molecules below were run on Male NMRI mice (assay: phenylquinone-induced writhing in mice (analgesic testing by writhing test)). Settings: 10 mg/kg i.v., phenylquinone i.p. 10 minutes after compound, writhing counted 5–20 minutes after phenylquinone.
Format: in vivo
Method: The investigation into the analgesic efficacy of the compounds according to the invention was performed by phenylquinone-induced writhing in mice, modified after I. C. Hendershot, J. Forsaith, J. Pharmacol. Exp. There. 125, 237240 (1959). The corresponding literature description is hereby introduced as a reference and is deemed to be part of the disclosure.
Male NMRI mice weighing from 25–30 g were used for this purpose. Groups of 10 animals per compound dose received, 10 minutes after intravenous administration of the compounds tested, 0.3 ml/mouse of a 0.02% aqueous solution of phenylquinone (phenylbenzoquinone, Sigma, Deisenhofen; solution prepared with addition of 5% of ethanol and stored in a water bath at 45° C.) administered intraperitoneally. The animals were then placed individually in observation cages. A push button counter was used to record the number of pain-induced stretching movements (writhing reactions=straightening of the torso with stretching of the rear extremities) for 5–20 minutes after phenylquinone administration. The control was provided by animals which received only physiological common salt solution with phenylquinone.
The compounds according to the invention were tested at the standard dosage of 10 mg/kg. The percentage inhibition (% inhibition) of the writhing reactions by a compound was calculated according to the following formula: […]
Analgesic Testing by Writhing Test in Mice
The in-depth investigation into the analgesic efficacy of the compounds according to the invention was performed using phenylquinone-induced writhing in mice, as described above.

Molecule | % inhibition of writhing reactions
5-Chloro-3-{[3′-(N,N-dimethylaminomethyl)-4′-hydroxy-4′-(3″-methoxyphenyl)-cyclohexylamino]-methyl}-1H-indole 2-carboxylic acid ester [Compound 1] | 48%
CCOC(=O)c1c(CNC2CCC(O)(c3cccc(OC)c3)C(CN(C)C)C2)c2c(Cl)cc(Cl)cc2n1C(=O)OC(C)(C)C (stereo not shown) [Compound 4] | 100%
COc1cccc(C2(O)CCC(NCc3c(C(=O)O)[nH]c4cc(Cl)cc(Cl)c34)CC2CN(C)C)c1 (stereo not shown) [Compound 3, 4,6-Dichloro-3-{[3′-(N,N-dimethylaminomethyl)-4′-hydroxy-4′-(3″-methoxyphenyl)-cyclohexylamino]-methyl}-1H-indole 2-carboxylic acid] | 72%
CCOC(=O)c1[nH]c2cc(Cl)cc(Cl)c2c1CNC1CCC(O)(c2cccc(OC)c2)C(CN(C)C)C1 (stereo not shown) [Compound 2, 4,6-Dichloro-3-{[3′-(N,N-dimethylaminomethyl)-4′-hydroxy-4′-(3″-methoxyphenyl)-cyclohexylamino]-methyl}-1H-indole 2-carboxylic acid ethyl ester] | 97%
